For data set [1], the system named is Lin−Sca1+c-Kit+ cells (LSK). The data set can be described thus: Annexin V/PI staining of HSPC fractions after AZA in vivo. Also noted: species or system mice. Conditions: AZA 1.25, 2.5 and 5 mg/kg/d for 3 days. As for the experimental part:
Analysis was performed 24 h after last AZA administration. Gated from LSK. (B) Annexin V+(left) and AnnexinV/PI+(right) cells shown as % from LSK in the three different dose groups as compared to untreated controls. Data were pooled from 2 independent experiments and represent mean±SD (n=4 in the control group and n=7 in the AZA groups). Statistics were calculated Mann-Whitney test (*P<0.05; **P<0.01).
In vivo direct killing by apoptosis was confirmed by flow cytometry using Annexin V/PI to stain the HSPC fractions.

The next data set relates to donor HSC engraftment. Nature of the data set: Allogeneic (minor MHC-mismatched) transplantation, donor chimerism in peripheral blood. In kind it is in vivo, BALB.B mice. As for the experimental part:
A. Schematic of allogeneic transplantation protocol. BALB.B mice (H-2^b, Thy1.2, CD45.2) were recipients for B6 donors (H-2b, Thy1.1, CD45.1); ACK2 was injected 10 days prior transplantation, AZA was administered days −5 through −1 in dose 2.5 or 5 mg/kg/d, anti-CD4/CD8 were injected in dose 100 μg at days −2, −1 and at the day of transplant (day 0); recipients received 15×10^6 WBM cells or 5×10^4 LSK at d0; chimerism analysis was assessed by flow cytometry using CD45 marker to distinguish between donor and recipient total, myeloid (Gr1^+Mac1^+), B-cells (CD19^+CD3^−) and T-cells (CD19^−CD3^+). B. Multilineage donor-derived chimerism after conditioning with ACK2, AZA 2.5 mg/kg, AZA 5 mg/kg or their combination and transplantation of 15×10^6WBM cells. Chimerism levels from peripheral blood are shown at 4, 14 and 26 weeks post-HCT. Data represent mean±SD (n=4 per group). C. Multilineage donor-derived chimerism in peripheral blood at 4, 14 and 26 weeks following conditioning with single agent ACK2, single agent AZA 5 mg/kg/d or their combination and transplantation of 5×10^4 Lin^− Sca1^+c-Kit^+ cells (LSK). Data represent mean±SD (n=3-5 per group) between the donor and recipient.
Mice. […]
Bone marrow cell preparation and HSC isolation for transplantation experiments. […] Cells were filtered through 70-μm filter, lysed in ACK lysis buffer and counted on Invitrogen Countess. […]

The conditions of data set [2]: patients, subcutaneous administration of 75 mg/m^2 AZA, plasma; cited from earlier work.

These results are taken from patent US12564609B2, “Hematopoietic stem cell engraftment with a combination of agents” (The Board of Trustees of the Leland Stanford Junior …, priority 2020, dated 2026).

As for `Nc1ncn([C@@H]2O[C@H](CO)[C@@H](O)[C@H]2O)c(=O)n1` [AZA, 5-Azacytidine], the “apoptosis and apoptotic cell death in the HSPC compartment” value in data set [1] is recorded as “dose dependent”. The donor engraftment entry in the data set with donor HSC engraftment (AZA 5 mg/kg/d, anti-CD4/CD8, 15×10^6 allogeneic WBM cells) is on record as “successful donor engraftment was achieved”. Also, the “total donor chimerism over time” value with donor HSC engraftment (AZA alone group, 15×10^6 allogeneic WBM cells) is recorded as “noted to decrease”. In addition, the Cmax in data set [2] is 750 ± 403.3 ng/mL.

As a reminder, the Cmax is the peak of the concentration-time curve.
